“Also recorded” adds a separate entry of the source.
Experiments:
holo-TDO2 = target: T1, holo-TDO2 (Homo sapiens, UniProt P48775); experiment: Heme competition by holo-TDO2 UV-VIS absorbance (Soret band); format: binding; conditions: 5 µM holo-TDO2, 20 µM inhibitor, 37 °C, up to 6 h
T1 construct: a construct encoding amino acids 19–406 of human TDO2 with an N-terminal six histidine tag; His6 (N); PreScission protease cleavage site (linker) (N); made in house; host or cells: E. coli BL21(DE3)
Method: To explore whether the identified apo-binders could compete with heme-binding to TDO2, a UV-visible absorption spectrum of holo-TDO2 was measured in the absence or presence of compounds. […] A shifted Soret peak can indicate a heme protein-ligand interaction, and a reduced intensity indicates loss of protein bound heme (although free heme also absorbs with a peak at approximately 400 nm, it is very poorly soluble).
Fig. 2 The UV-VIS absorption spectrum of holo-TDO2 in the presence of Cpd-1 (A) or Cpd-2 (B) or the vehicle control. […] The increase of absorbance at 280 nm of holo-TDO2 in the presence of Cpd-1 or Cpd-2 compared to the vehicle control is likely due to compound absorbance at this wavelength.
A UV − visible spectra study was performed to evaluate the binding of the compounds. The holo-TDO2 absorbance spectra were measured using a BioTek Synergy multimode reader (Agilent) for wavelengths from 250 to 600 nm in 1 nm increments. 5 µM holo-TDO2 was incubated at 37 °C with 20 µM compounds or DMSO in phosphate buffer supplemented with 0.01% Tween-20 in a 96 well UV compatible plate (Corning #3679) and absorbance was measured before (t = 0 h) and after 2–6 h of incubation.

IDO1 = target: T2, IDO1 (Homo sapiens, UniProt P14902); experiment: IDO1 cellular activity assay (IFNγ-stimulated SKOV3 cells); format: cell-based; conditions: IFNγ 50 ng/ml, 24 h
T2 construct: SKOV3 cells treated with IFNγ to induce IDO expression; endogenous in cells; host or cells: SKOV3 cells (NCI No. 0503405), IFNγ-stimulated
T2 sequence (P14902 whole entry): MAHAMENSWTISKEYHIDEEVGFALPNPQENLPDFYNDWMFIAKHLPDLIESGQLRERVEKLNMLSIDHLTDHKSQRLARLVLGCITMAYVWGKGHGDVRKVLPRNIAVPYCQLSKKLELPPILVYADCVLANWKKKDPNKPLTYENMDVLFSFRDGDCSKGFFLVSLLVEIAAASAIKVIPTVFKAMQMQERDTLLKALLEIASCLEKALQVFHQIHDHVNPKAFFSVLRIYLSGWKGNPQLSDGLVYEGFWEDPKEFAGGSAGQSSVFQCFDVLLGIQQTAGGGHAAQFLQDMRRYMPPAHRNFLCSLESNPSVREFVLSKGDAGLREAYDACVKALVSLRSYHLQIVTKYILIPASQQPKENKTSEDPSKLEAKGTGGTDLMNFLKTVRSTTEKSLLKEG
Method: A cellular assay similar to the TDO2 assay was used to measure IDO1 inhibition in SKOV3 cells.
SKOV3 cells (source: National Cancer Institute (NCI), No. 0503405) which upregulate IDO1 after stimulation with IFNγ were used to measure compounds for IDO1 inhibitory activity. SKOV3 cells were routinely maintained in RPMI 90% (v/v), FCS 10% (v/v), Penicilin/streptomycin 1% (v/v). SKOV3 cells were seeded in 384 well plates at a density of 8000 cells in 45 µl per well or 4000 cells in 45 µl per well, respectively. Plates were incubated at 37 °C / 5% CO2 for 24 h. On the next day, 10 µl compound in serial dilutions (tested concentration range 10 µM-0.5 nM) and 200 µM L-tryptophan were added as well as IFNγ at a final concentration of 50 ng/ml. After 24 h of incubation at 37 °C / 5% CO2, 3 µl of the supernatant per well was transferred to 25 µl H2O per well in a 384 deep well plate and 25 µl of the supernatant per well was transferred to waste. The SKOV3 cell plates with 25 µl supernatant per well remaining were used to measure viability (see below). […] NFK and kynurenine (KYN) were quantified by LCMS, normalized to the internal standard L-tryptophan-(indole-d5) and the sum was calculated. […] For each compound concentration the percentage of activity compared to 0% and 100% effect was calculated as average ± STDEV (each concentration measured in duplicate). […]

[1] = target: T3, recombinant human TDO2 (holo-TDO2) (Homo sapiens, UniProt P48775); experiment: Holo-TDO2 enzymatic assay; format: biochemical
T3 construct: a construct encoding amino acids 19–406 of human TDO2 with an N-terminal six histidine tag; PreScission protease cleavage site (linker) (N); made in house; host or cells: E. coli BL21(DE3)
T3 sequence (P48775 19-406): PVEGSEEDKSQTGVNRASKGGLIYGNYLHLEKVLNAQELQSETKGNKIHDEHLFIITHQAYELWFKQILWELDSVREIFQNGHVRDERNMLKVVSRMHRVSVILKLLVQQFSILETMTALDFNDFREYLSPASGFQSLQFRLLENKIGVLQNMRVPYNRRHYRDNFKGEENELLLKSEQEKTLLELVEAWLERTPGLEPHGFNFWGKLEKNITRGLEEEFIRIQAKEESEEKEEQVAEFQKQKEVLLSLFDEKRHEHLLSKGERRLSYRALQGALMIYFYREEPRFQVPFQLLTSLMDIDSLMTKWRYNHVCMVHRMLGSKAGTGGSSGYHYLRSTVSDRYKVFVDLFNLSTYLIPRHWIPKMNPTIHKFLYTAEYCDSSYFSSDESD
Method: The IC50 curve is shown in supplementary Fig. S1 online. We speculate that the observed IC50 shift may be due to the kinetics of heme dissociation from holo-TDO2 and/or the absence of alternative heme binding proteins in the assay system. The structurally similar Cpd-2 was not tested in the enzymatic assay.
For the enzymatic assay, recombinant human TDO2 comprising amino acids […] with a N-terminal hexahistidine tag, expressed in Escherichia coli and purified to homogeneity, was incubated in assay buffer consisting of 75 mM phosphate buffer at pH 7.0 supplemented with 100 µM ascorbic acid, 50 U/ml catalase, 0.01% bovine serum albumin (BSA), and 0.01% Tween 20 (protocol modified from[45]).

T1 sequence (P48775 19-406): as above

IC50 (IDO1) [µM] | IC50 ([1]; 30 min assay at room temperature after 30 min pre-incubation with holo-TDO2, read-out: enzymatic assay IC50 (holo form of TDO2)) [µM] | fold less potent in enzymatic assay than in the cellular assay ([1]; enzymatic IC50 vs TDO2 cellular IC50) [fold] | Compound | Soret band (405 nm) intensity of holo-TDO2 absorption spectrum (holo-TDO2)
> 10 |  |  | CCOC(=O)c1c(OC)nc2n(c1=O)CCCC2N(C(=O)Nc1ccccc1C(C)C)[C@@H](C)c1ccccc1 (mixture of isomers) [Cpd-2, ethyl 9-(3-(2-isopropylphenyl)-1-((S)-1-phenylethyl)ureido)-2-methoxy-4-oxo-6,7,8,9-tetrahydro-4H-pyrido[1,2-a]pyrimidine-3-carboxylate] | clear time-dependent reduction in the Soret band intensity; also recorded: reduction of the absorbance peak at 405 nm
5.7 | 17.4 | 53 | CCCc1ccccc1NC(=O)N(C(C)c1ccccc1)C1CCCn2c1nc(OC)c(C(=O)OCC)c2=O (stereo not drawn) [Cpd-1, ethyl 9-(3-(2-propylphenyl)-1-(1-phenylethyl)ureido)-2-methoxy-4-oxo-6,7,8,9-tetrahydro-4H-pyrido[1,2-a]pyrimidine-3-carboxylate] | clear time-dependent reduction in the Soret band intensity; also recorded: reduction of the absorbance peak at 405 nm
